Experimental findings from patent publication US5574006A, “Nasally administrable peptide compositions on hydroxyapatite carriers” (Dott Research Laboratory, priority 1993, dated 1996) are described below.

On the set-up of data set [1]: species or system healthy male adults. The following applies: in vivo. The protocol: A nasally administrable composition in powdery form was prepared by formulating salmon calcitonin as a physiologically active peptide at the rate of 200 MRC (IU) per 25 mg with hydroxyapatite as a carrier having a mean particle size ranging from 40 to 45 μm.
(§1) The resulting composition was nasally administered once at the dose of 25 mg to six healthy male adults and the blood (2.5 ml) was collected from each of the tested adults prior to administration and then at 5, 10, 15, 20, 30, 45, 60, 90, 120 and 180 minutes after administration. The concentration of the salmon calcitonin in each of the collected blood samples was assayed with a standard RIA assay kit.

Details of data set [2]: species or system healthy male adults. Particulars: in vivo. The protocol:
A nasally administrable composition in powdery form was prepared by formulating salmon calcitonin as a physiologically active peptide at the rate of 200 MRC (IU) per 25 mg with hydroxyapatite as a carrier.
as §1
The source holds these as a separate data set.

Data set [3] has as its system blood sugar. Kind of data set: Average fall of the blood sugar in rabbits after insulin administration. The data set is classed as in vivo, New Zealand rabbits. Particulars: S.C., 2 IU/rabbit. As to the method:
The resulting composition was nasally administered once to six male New Zealand rabbits. The average fall of the blood sugar was measured and represented in percentage (%) at 0, 15, 30, 60, 120 and 180 minutes after administration. For comparison, 2 (IU)/rabbit of insulin was administered subcutaneously to six male New Zealand rabbits and the average fall of the blood sugar was measured and represented in […] (%) at 0, 60, 120, 240 and 360 minutes after administration.

hydroxyapatite: the “absorption of calcitonin (in words)” value in data set [1] is given as “effective to attain better absorption of calcitonin”. Also, the “absorption of calcitonin through the nasal cavity (in words)” value in data set [2] is on record as “effective to attain better absorption of calcitonin through the nasal cavity”.
As to insulin [Comparison], the “Average fall of the blood sugar” value turned out to be 100% in data set [3] (0 min); 57% in data set [3] (60 min); 56% in data set [3] (120 min); 84% in data set [3] (240 min); 94% in data set [3] (360 min).
